In the series the target is Mmp7 (rat). The series is described as follows: reporter assay of Huesken 2005. As to conditions: siRNA. For orientation: A reporter such as luciferase makes a cellular process visible.

Oligonucleotides are given in HELM: sugar(base)linkage, 5' to 3'; d 2'-deoxyribose, r ribose, m 2'-O-methylribose, p phosphate. ss, as = sense and antisense strand
Further: test concentration or dose not given here.

Turning to “RNA1{r(G)p.r(G)p.r(G)p.r(C)p.r(C)p.r(A)p.r(G)p.r(G)p.r(A)p.r(A)p.r(A)p.r(C)p.r(A)p.r(C)p.r(U)p.r(C)p.r(U)p.r(A)p.r(G)p.d(T)p.d(T)}|RNA2{r(C)p.r(U)p.r(A)p.r(G)p.r(A)p.r(G)p.r(U)p.r(G)p.r(U)p.r(U)p.r(U)p.r(C)p.r(C)p.r(U)p.r(G)p.r(G)p.r(C)p.r(C)p.r(C)p.d(A)p.d(T)}$$$RNA1{StrandType:ss}|RNA2{StrandType:as}$”, the normalised inhibition (eCFP-eYFP dual reporter) was 83.5%.

“RNA1{r(G)p.r(U)p.r(U)p.r(C)p.r(U)p.r(G)p.r(U)p.r(G)p.r(A)p.r(U)p.r(G)p.r(U)p.r(A)p.r(C)p.r(C)p.r(C)p.r(U)p.r(A)p.r(C)p.d(T)p.d(T)}|RNA2{r(G)p.r(U)p.r(A)p.r(G)p.r(G)p.r(G)p.r(U)p.r(A)p.r(C)p.r(A)p.r(U)p.r(C)p.r(A)p.r(C)p.r(A)p.r(G)p.r(A)p.r(A)p.r(C)p.d(T)p.d(G)}$$$RNA1{StrandType:ss}|RNA2{StrandType:as}$”: the normalised inhibition (eCFP-eYFP dual reporter) was found to be 105%.

As to “RNA1{r(U)p.r(G)p.r(G)p.r(A)p.r(C)p.r(G)p.r(G)p.r(A)p.r(U)p.r(G)p.r(G)p.r(U)p.r(G)p.r(A)p.r(G)p.r(G)p.r(A)p.r(C)p.r(U)p.d(T)p.d(T)}|RNA2{r(A)p.r(G)p.r(U)p.r(C)p.r(C)p.r(U)p.r(C)p.r(A)p.r(C)p.r(C)p.r(A)p.r(U)p.r(C)p.r(C)p.r(G)p.r(U)p.r(C)p.r(C)p.r(A)p.d(G)p.d(T)}$$$RNA1{StrandType:ss}|RNA2{StrandType:as}$”, the normalised inhibition (eCFP-eYFP dual reporter) is 52.5%. The value for “RNA1{r(G)p.r(G)p.r(A)p.r(A)p.r(A)p.r(C)p.r(A)p.r(C)p.r(U)p.r(C)p.r(U)p.r(A)p.r(G)p.r(G)p.r(C)p.r(C)p.r(A)p.r(U)p.r(G)p.d(T)p.d(T)}|RNA2{r(C)p.r(A)p.r(U)p.r(G)p.r(G)p.r(C)p.r(C)p.r(U)p.r(A)p.r(G)p.r(A)p.r(G)p.r(U)p.r(G)p.r(U)p.r(U)p.r(U)p.r(C)p.r(C)p.d(T)p.d(G)}$$$RNA1{StrandType:ss}|RNA2{StrandType:as}$” was 89.7%.

As for “RNA1{r(C)p.r(A)p.r(C)p.r(U)p.r(C)p.r(U)p.r(A)p.r(G)p.r(G)p.r(C)p.r(C)p.r(A)p.r(U)p.r(G)p.r(C)p.r(C)p.r(U)p.r(U)p.r(U)p.d(T)p.d(T)}|RNA2{r(A)p.r(A)p.r(A)p.r(G)p.r(G)p.r(C)p.r(A)p.r(U)p.r(G)p.r(G)p.r(C)p.r(C)p.r(U)p.r(A)p.r(G)p.r(A)p.r(G)p.r(U)p.r(G)p.d(T)p.d(T)}$$$RNA1{StrandType:ss}|RNA2{StrandType:as}$”, the normalised inhibition (eCFP-eYFP dual reporter) was 101%.

Regarding “RNA1{r(C)p.r(C)p.r(A)p.r(G)p.r(G)p.r(U)p.r(G)p.r(U)p.r(G)p.r(G)p.r(A)p.r(G)p.r(U)p.r(G)p.r(C)p.r(C)p.r(A)p.r(G)p.r(A)p.d(T)p.d(T)}|RNA2{r(U)p.r(C)p.r(U)p.r(G)p.r(G)p.r(C)p.r(A)p.r(C)p.r(U)p.r(C)p.r(C)p.r(A)p.r(C)p.r(A)p.r(C)p.r(C)p.r(U)p.r(G)p.r(G)p.d(G)p.d(C)}$$$RNA1{StrandType:ss}|RNA2{StrandType:as}$”, the normalised inhibition (eCFP-eYFP dual reporter) worked out at 85.6%. “RNA1{r(G)p.r(A)p.r(G)p.r(U)p.r(G)p.r(C)p.r(C)p.r(A)p.r(G)p.r(A)p.r(U)p.r(G)p.r(U)p.r(U)p.r(G)p.r(C)p.r(A)p.r(G)p.r(A)p.d(T)p.d(T)}|RNA2{r(U)p.r(C)p.r(U)p.r(G)p.r(C)p.r(A)p.r(A)p.r(C)p.r(A)p.r(U)p.r(C)p.r(U)p.r(G)p.r(G)p.r(C)p.r(A)p.r(C)p.r(U)p.r(C)p.d(C)p.d(A)}$$$RNA1{StrandType:ss}|RNA2{StrandType:as}$”: the normalised inhibition (eCFP-eYFP dual reporter) was found to be 104%. Take “RNA1{r(G)p.r(A)p.r(U)p.r(G)p.r(A)p.r(G)p.r(U)p.r(A)p.r(C)p.r(U)p.r(G)p.r(G)p.r(A)p.r(C)p.r(G)p.r(G)p.r(A)p.r(U)p.r(G)p.d(T)p.d(T)}|RNA2{r(C)p.r(A)p.r(U)p.r(C)p.r(C)p.r(G)p.r(U)p.r(C)p.r(C)p.r(A)p.r(G)p.r(U)p.r(A)p.r(C)p.r(U)p.r(C)p.r(A)p.r(U)p.r(C)p.d(C)p.d(T)}$$$RNA1{StrandType:ss}|RNA2{StrandType:as}$”: the normalised inhibition (eCFP-eYFP dual reporter) is 87.4%. In the case of “RNA1{r(U)p.r(G)p.r(G)p.r(U)p.r(G)p.r(A)p.r(G)p.r(G)p.r(A)p.r(C)p.r(U)p.r(C)p.r(A)p.r(G)p.r(G)p.r(C)p.r(G)p.r(U)p.r(G)p.d(T)p.d(T)}|RNA2{r(C)p.r(A)p.r(C)p.r(G)p.r(C)p.r(C)p.r(U)p.r(G)p.r(A)p.r(G)p.r(U)p.r(C)p.r(C)p.r(U)p.r(C)p.r(A)p.r(C)p.r(C)p.r(A)p.d(T)p.d(C)}$$$RNA1{StrandType:ss}|RNA2{StrandType:as}$”, the normalised inhibition (eCFP-eYFP dual reporter) stood at 69.8%.

On to “RNA1{r(A)p.r(A)p.r(U)p.r(G)p.r(C)p.r(A)p.r(G)p.r(A)p.r(A)p.r(G)p.r(C)p.r(C)p.r(C)p.r(A)p.r(G)p.r(G)p.r(U)p.r(G)p.r(U)p.d(T)p.d(T)}|RNA2{r(A)p.r(C)p.r(A)p.r(C)p.r(C)p.r(U)p.r(G)p.r(G)p.r(G)p.r(C)p.r(U)p.r(U)p.r(C)p.r(U)p.r(G)p.r(C)p.r(A)p.r(U)p.r(U)p.d(A)p.d(T)}$$$RNA1{StrandType:ss}|RNA2{StrandType:as}$”, for which the normalised inhibition (eCFP-eYFP dual reporter) is 86.1%. On to “RNA1{r(A)p.r(U)p.r(G)p.r(G)p.r(U)p.r(G)p.r(A)p.r(G)p.r(G)p.r(A)p.r(C)p.r(U)p.r(C)p.r(A)p.r(G)p.r(G)p.r(C)p.r(G)p.r(U)p.d(T)p.d(T)}|RNA2{r(A)p.r(C)p.r(G)p.r(C)p.r(C)p.r(U)p.r(G)p.r(A)p.r(G)p.r(U)p.r(C)p.r(C)p.r(U)p.r(C)p.r(A)p.r(C)p.r(C)p.r(A)p.r(U)p.d(C)p.d(C)}$$$RNA1{StrandType:ss}|RNA2{StrandType:as}$”, for which the normalised inhibition (eCFP-eYFP dual reporter) stood at 65.7%.

In the case of “RNA1{r(G)p.r(C)p.r(U)p.r(C)p.r(A)p.r(C)p.r(U)p.r(U)p.r(U)p.r(G)p.r(A)p.r(C)p.r(A)p.r(A)p.r(G)p.r(G)p.r(A)p.r(U)p.r(G)p.d(T)p.d(T)}|RNA2{r(C)p.r(A)p.r(U)p.r(C)p.r(C)p.r(U)p.r(U)p.r(G)p.r(U)p.r(C)p.r(A)p.r(A)p.r(A)p.r(G)p.r(U)p.r(G)p.r(A)p.r(G)p.r(C)p.d(A)p.d(T)}$$$RNA1{StrandType:ss}|RNA2{StrandType:as}$”, the normalised inhibition (eCFP-eYFP dual reporter) amounted to 102%. The value for “RNA1{r(G)p.r(C)p.r(C)p.r(A)p.r(C)p.r(U)p.r(G)p.r(U)p.r(C)p.r(C)p.r(C)p.r(A)p.r(G)p.r(G)p.r(A)p.r(A)p.r(G)p.r(C)p.r(C)p.d(T)p.d(T)}|RNA2{r(G)p.r(G)p.r(C)p.r(U)p.r(U)p.r(C)p.r(C)p.r(U)p.r(G)p.r(G)p.r(G)p.r(A)p.r(C)p.r(A)p.r(G)p.r(U)p.r(G)p.r(G)p.r(C)p.d(A)p.d(G)}$$$RNA1{StrandType:ss}|RNA2{StrandType:as}$” was 66%; that for “RNA1{r(U)p.r(U)p.r(G)p.r(C)p.r(C)p.r(G)p.r(G)p.r(A)p.r(G)p.r(A)p.r(C)p.r(U)p.r(G)p.r(G)p.r(A)p.r(A)p.r(A)p.r(G)p.r(C)p.d(T)p.d(T)}|RNA2{r(G)p.r(C)p.r(U)p.r(U)p.r(U)p.r(C)p.r(C)p.r(A)p.r(G)p.r(U)p.r(C)p.r(U)p.r(C)p.r(C)p.r(G)p.r(G)p.r(C)p.r(A)p.r(A)p.d(A)p.d(C)}$$$RNA1{StrandType:ss}|RNA2{StrandType:as}$” was 1.9%.

On to “RNA1{r(G)p.r(G)p.r(C)p.r(C)p.r(A)p.r(G)p.r(G)p.r(A)p.r(A)p.r(A)p.r(C)p.r(A)p.r(C)p.r(U)p.r(C)p.r(U)p.r(A)p.r(G)p.r(G)p.d(T)p.d(T)}|RNA2{r(C)p.r(C)p.r(U)p.r(A)p.r(G)p.r(A)p.r(G)p.r(U)p.r(G)p.r(U)p.r(U)p.r(U)p.r(C)p.r(C)p.r(U)p.r(G)p.r(G)p.r(C)p.r(C)p.d(C)p.d(A)}$$$RNA1{StrandType:ss}|RNA2{StrandType:as}$”, for which the normalised inhibition (eCFP-eYFP dual reporter) amounted to 54.5%. The value for “RNA1{r(U)p.r(G)p.r(C)p.r(A)p.r(G)p.r(A)p.r(A)p.r(U)p.r(U)p.r(C)p.r(U)p.r(C)p.r(A)p.r(C)p.r(U)p.r(A)p.r(A)p.r(U)p.r(G)p.d(T)p.d(T)}|RNA2{r(C)p.r(A)p.r(U)p.r(U)p.r(A)p.r(G)p.r(U)p.r(G)p.r(A)p.r(G)p.r(A)p.r(A)p.r(U)p.r(U)p.r(C)p.r(U)p.r(G)p.r(C)p.r(A)p.d(A)p.d(C)}$$$RNA1{StrandType:ss}|RNA2{StrandType:as}$” was 72.9%; that for “RNA1{r(G)p.r(G)p.r(A)p.r(G)p.r(A)p.r(C)p.r(U)p.r(G)p.r(G)p.r(A)p.r(A)p.r(A)p.r(G)p.r(C)p.r(U)p.r(G)p.r(U)p.r(C)p.r(C)p.d(T)p.d(T)}|RNA2{r(G)p.r(G)p.r(A)p.r(C)p.r(A)p.r(G)p.r(C)p.r(U)p.r(U)p.r(U)p.r(C)p.r(C)p.r(A)p.r(G)p.r(U)p.r(C)p.r(U)p.r(C)p.r(C)p.d(G)p.d(G)}$$$RNA1{StrandType:ss}|RNA2{StrandType:as}$” was 88.7%; that for “RNA1{r(G)p.r(G)p.r(A)p.r(C)p.r(G)p.r(G)p.r(A)p.r(U)p.r(G)p.r(G)p.r(U)p.r(G)p.r(A)p.r(G)p.r(G)p.r(A)p.r(C)p.r(U)p.r(C)p.d(T)p.d(T)}|RNA2{r(G)p.r(A)p.r(G)p.r(U)p.r(C)p.r(C)p.r(U)p.r(C)p.r(A)p.r(C)p.r(C)p.r(A)p.r(U)p.r(C)p.r(C)p.r(G)p.r(U)p.r(C)p.r(C)p.d(A)p.d(G)}$$$RNA1{StrandType:ss}|RNA2{StrandType:as}$” was 81.1%. The value for “RNA1{r(U)p.r(A)p.r(C)p.r(C)p.r(U)p.r(U)p.r(C)p.r(A)p.r(C)p.r(G)p.r(A)p.r(C)p.r(U)p.r(C)p.r(U)p.r(A)p.r(A)p.r(A)p.r(A)p.d(T)p.d(T)}|RNA2{r(U)p.r(U)p.r(U)p.r(U)p.r(A)p.r(G)p.r(A)p.r(G)p.r(U)p.r(C)p.r(G)p.r(U)p.r(G)p.r(A)p.r(A)p.r(G)p.r(G)p.r(U)p.r(A)p.d(A)p.d(A)}$$$RNA1{StrandType:ss}|RNA2{StrandType:as}$” was 110%; that for “RNA1{r(C)p.r(A)p.r(A)p.r(A)p.r(C)p.r(A)p.r(G)p.r(U)p.r(C)p.r(C)p.r(U)p.r(A)p.r(A)p.r(G)p.r(U)p.r(G)p.r(G)p.r(C)p.r(A)p.d(T)p.d(T)}|RNA2{r(U)p.r(G)p.r(C)p.r(C)p.r(A)p.r(C)p.r(U)p.r(U)p.r(A)p.r(G)p.r(G)p.r(A)p.r(C)p.r(U)p.r(G)p.r(U)p.r(U)p.r(U)p.r(G)p.d(G)p.d(C)}$$$RNA1{StrandType:ss}|RNA2{StrandType:as}$” was 81.2%.

Source of the values: the OligoGym collection.
